Measured values as given in publication PMC9763021, “Comprehensive Assessment of Biomolecular Interactions of Morpholine-Based Mixed Ligand Cu(II) and Zn(II) Complexes of 2,2′-Bipyridine as Potential Anticancer and SARS-CoV-2 Agents: A Synergistic Experimental and Structure-Based Virtual Screening” (Bioinorganic Chemistry and Applications, 2022).

Key:
CT-DNA = test: DNA binding by UV-visible absorption titration; set-up: species or system calf thymus; conditions: for % H (hypochromism) / Δλ nm (red shift on DNA binding): Tris-HCl pH 7.4, 25°C; for ∆Gb° BH-I: from Kb BH-I; for ∆Gb° BH-I / ∆Gb° (BH-II) / ∆Gb° SK-I / ∆Gb° (SK-II) / ∆Gb° WS-I / ∆Gb° (WS-II): T = 298 K; for ∆Gb° (BH-II): from Kb BH-II; for ∆Gb° SK-I: from Kb SK-I; for ∆Gb° (SK-II): from Kb SK-II; for ∆Gb° WS-I: from Kb WS-I; for ∆Gb° (WS-II): from Kb WS-II
Procedure: The DNA-binding experiment was conducted by an electronic absorption spectrophotometer by raising the DNA concentration from zero to 50 μM to the given concentration of all samples (50 μM) in Tris-HCl buffer solution (pH: 7.4) at 25°C [6, 28, 31, 32].
UV-visible absorption titration is the main imperative approach to observing the tendency of test substances to bind with deoxyribonucleic acid. The approach is commonly utilized to evaluate the potency and mode of binding of the test substances with deoxyribonucleic acid. The essential information regarding conformational change, the effectiveness of the DNA-substance binding, and the negatively charged phosphate on deoxyribonucleic acid are neutralized via exterior contact, and intercalation through interactions between π-π stacks is presented by DNA binding towards metal complexes. All complexes (1a-2a), including the free ligand (HL), were measured in the presence and absence of deoxyribonucleic acid by ultraviolet-visible spectrophotometric titrations under Tris-HCl buffer solution (pH: 7.4) at room temperature (Figure 2). In this case, all samples were exposed to two prominent electronic absorption bands at 260 nm and 336–343 nm, consequent to the π-π^∗ transition of the phenyl chromophore and MLCT, respectively. While the amount of DNA concentration rises in each test compound, the interaction of the chemical substance with DNA base pairs generates noticeable alterations in the intraligand charge transfer bands' strength and wavelength. […] The Kb findings were measured for all samples by the Wolfe–Shimmer equations […] by methods I and II, respectively, from the findings of the slope divided by the intercept in the linear regression plots of [DNA]/(ɛa − ɛf) vs. [DNA] and the intercept divided by intercept slope in the linear regression plot of (ɛb − ɛf)/(ɛa − ɛf) vs. 1/[DNA] M^−1 (Figure S17), and the Kb results for each sample were in the subsequent sequence: (1a) > (2a) > (HL). […] It is concluded that the morpholine linked ligand's coplanarity and 2,2′-bipyridine aromatic system complexation with the metal center, which promotes the complex to infiltrate DNA base pairs smoothly, and large aromatic systems may also assist the complex to penetrate the phosphate backbone's core deeply, and those substances may permit the complex to freely penetrate deep into the deoxyribonucleic acid double helix. In addition, the observed isosbestic points are found at 256 and 276 nm for free ligand and complexes (1a-2a), respectively. […] The Wolfe–Shimmer (1 and 2), Benesi–Hildebrand (3 and 4), and Sakthi–Krause equations (5 and 6) were supported to evaluate Kb results for all samples (Table 1). The Benesi–Hildebrand binding constant (Kb) values were measured using equations (3) and (4) by methods I and II, respectively, from the intercept divided by slope in the linear regression plot of [1/(Ax − A0)] vs. {1/[DNA]} M^−1 and the intercept divided by slope in the linear regression plot of [(Amax − A0)/(Ax − A0)] vs. {1/[DNA]} M^−1 (Figure S18). The Kb values were estimated using Sakthi–Krause equations (5) and (6) by methods I and II, respectively, with the intercept divided by slope in the linear regression plot of [(A/(A0 − A)] vs. {1/[DNA]} M^−1 (Figure S19) and the antilogarithm value of the intercept in the linear regression plot of log {1/[DNA]} vs. log [(A/(A0 − A)]M^−1 (Figure S20). In addition, the Van't Hoff equation (7) was supported to obtain the ∆Gb° values for DNA interaction, and equation (8) was supported to measure the % of chromicity for all substances (Table 1). The overall measured Kb findings were in the subsequent sequence: (1a) > (2a) > (HL). In these cases, the observed ∆Gb° values were reported in the range of −19.91 to −29.13, −21.55 to −26.04 and −22.50 to –25.22 kJ·mol^−1, respectively (Table 1). In these cases, the complex (1a) had the highest DNA-binding efficacy among all binding results. […]

Candida albicans = test: Agar disc diffusion, strain I; assay type: cell-based; set-up: (inhibition %): concentration or dose not given beside the values; conditions: for diameter of the clear zone inhibition: control = 6 mm
Procedure: (§1) In-vitro antimicrobial properties were evaluated for all samples by the agar disc diffusion method towards different fungal and bacterial strains. Additionally, the reported inhibition zone values were comparatively analyzed with the standard antifungal drugs ketoconazole and amphotericin B as well as the standard antibiotic medications streptomycin and amikacin.
(§2) The current research has a curious focus on the in vitro antimicrobial properties of biological systems because these studies are crucial for developing effective antibacterial and antifungal medications. […] It can also be spelled out based on the chelation theory proposed by Overtone and Tweedy. Chelation theory points out that the partial exchanging of the positive charge of the metal center with donor moieties, and overlap of the ligand orbitals will reduce the greater degree of the metal ion's polarity, which ultimately rises the delocalization of π and d electrons over the full chelated ring system. By raising the size of the metal ion due to the retarding of polarization, chelation may also enhance the complexes' lipophilic characteristics, which further stimulate the lipid membrane permeability and break down the bacteria' enzymes responsible for cell wall formation, therefore slowing down the regular cell processes. By preventing the production of cell walls/proteins/DNA, including by obstructing folate metabolism and the cytoplasmic membrane, antimicrobial drugs frequently either fully eliminate microbes or only prevent their cell growth. Additionally, the samples' mode of action may be employed in disrupting the cell's respiration process by forming an H-bond during the morpholine-fused iminic group coordinated with the active metal center of its components, inhibiting proliferation of the cell. […] The difference in the antimicrobial efficacy of some of the compounds towards various microorganisms influences on the impermeability of the cells of the germs or the diversity of ribosomes of the microbes. The % of the inhibition of all substances is estimated from (45) (Table 9).
(§3) (A, B, C, D, and E are represented as gram negative bacteria species Escherichia coli, Salmonella enteric serovar typhi, Salmonella enteric serovar typhi, Pseudomonas aeruginosa, and Shigella flexneri, respectively. F & G are denoted as gram positive bacteria species Staphylococcus aureus and Bacillus cereus. H, I, and J are represented as fungal strains Aspergillus niger, Candida albicans, and Mucor indicus. Standard drugs for bacterial strains: Amikacin & Streptomycin Standard drugs for fungal strains: Ketoconazole and Amphotericin B. [Control (DMSO) = 6 mm].(44) Inhibition %=T–C/T×100, where T and C are represented as the diameter of microbial growth of the sample plates and the control plate (6 mm), respectively. Error limits ±2.5–5.0% (P ≤ 0.05).

Escherichia coli = test: Agar disc diffusion, strain A; assay type: cell-based; set-up: (inhibition %): concentration or dose not given beside the values; conditions: for (inhibition %): (T–C)/T×100; for diameter of the clear zone inhibition: control (DMSO) = 6 mm
Procedure: as §1, §2, §3

[O-]c1ccccc1N=Cc1ccc(N2CCOCC2)cc1.[O-]c1ccccc1N=Cc1ccc(N2CCOCC2)cc1.[Zn+2].c1ccc(-c2ccccn2)nc1 [(2a), [Zn(L)2(bpy)]]
% H (hypochromism) (CT-DNA): 43.15% | Δλ nm (red shift on DNA binding) (CT-DNA): 05 nm | ∆Gb° BH-I (CT-DNA): -5.925 kcal/mol | ∆Gb° (BH-II) (CT-DNA): -5.937 kcal/mol | ∆Gb° SK-I (CT-DNA): -5.664 kcal/mol | ∆Gb° (SK-II) (CT-DNA): -5.868 kcal/mol | ∆Gb° WS-I (CT-DNA): -5.8114 kcal/mol | ∆Gb° (WS-II) (CT-DNA): -5.774 kcal/mol | (inhibition %) (Candida albicans): 54% | diameter of the clear zone inhibition (Candida albicans): 13 mm | (inhibition %) (Escherichia coli): 50% | diameter of the clear zone inhibition (Escherichia coli): 12 mm

Oc1ccccc1N=Cc1ccc(N2CCOCC2)cc1 [(HL), 2-(4-morpholinobenzylideneamino)phenol]
% H (hypochromism) (CT-DNA): 37.13% | Δλ nm (red shift on DNA binding) (CT-DNA): 04 nm | ∆Gb° BH-I (CT-DNA): -5.151 kcal/mol | ∆Gb° (BH-II) (CT-DNA): -5.851 kcal/mol | ∆Gb° SK-I (CT-DNA): -5.378 kcal/mol | ∆Gb° (SK-II) (CT-DNA): -5.779 kcal/mol | ∆Gb° WS-I (CT-DNA): -5.7 kcal/mol | ∆Gb° (WS-II) (CT-DNA): -5.712 kcal/mol | (inhibition %) (Candida albicans): 40% | diameter of the clear zone inhibition (Candida albicans): 10 mm | (inhibition %) (Escherichia coli): 33% | diameter of the clear zone inhibition (Escherichia coli): 09 mm

[Cu+2].[O-]c1ccccc1N=Cc1ccc(N2CCOCC2)cc1.[O-]c1ccccc1N=Cc1ccc(N2CCOCC2)cc1.c1ccc(-c2ccccn2)nc1 [(1a), [Cu(L)2(bpy)]]
% H (hypochromism) (CT-DNA): 52.18% | Δλ nm (red shift on DNA binding) (CT-DNA): 07 nm | ∆Gb° BH-I (CT-DNA): -6.224 kcal/mol | ∆Gb° (BH-II) (CT-DNA): -5.985 kcal/mol | ∆Gb° SK-I (CT-DNA): -5.772 kcal/mol | ∆Gb° (SK-II) (CT-DNA): -6.028 kcal/mol | ∆Gb° (WS-II) (CT-DNA): -5.918 kcal/mol | (inhibition %) (Candida albicans): 50% | diameter of the clear zone inhibition (Candida albicans): 12 mm | (inhibition %) (Escherichia coli): 54% | diameter of the clear zone inhibition (Escherichia coli): 13 mm
